Results: PMC12615753, “Glutathione as a taste modulator: molecular mechanisms of interaction with umami and sweet taste receptors” (Food Chemistry: Molecular Sciences, 2025)
Entries after “also recorded” stand apart in the source; their conditions may differ.

Target: T1, hTAS1R1 H71S/rTAS1R3 (Homo sapiens, UniProt Q7RTX1, H71S)
T1 construct: UniProtKB number Q7RTX1–1); expressed in transfected cells; host or cells: HEK293T/17 (ATCC CRL-11268)
T1 sequence (Q7RTX1 21-841 H71S): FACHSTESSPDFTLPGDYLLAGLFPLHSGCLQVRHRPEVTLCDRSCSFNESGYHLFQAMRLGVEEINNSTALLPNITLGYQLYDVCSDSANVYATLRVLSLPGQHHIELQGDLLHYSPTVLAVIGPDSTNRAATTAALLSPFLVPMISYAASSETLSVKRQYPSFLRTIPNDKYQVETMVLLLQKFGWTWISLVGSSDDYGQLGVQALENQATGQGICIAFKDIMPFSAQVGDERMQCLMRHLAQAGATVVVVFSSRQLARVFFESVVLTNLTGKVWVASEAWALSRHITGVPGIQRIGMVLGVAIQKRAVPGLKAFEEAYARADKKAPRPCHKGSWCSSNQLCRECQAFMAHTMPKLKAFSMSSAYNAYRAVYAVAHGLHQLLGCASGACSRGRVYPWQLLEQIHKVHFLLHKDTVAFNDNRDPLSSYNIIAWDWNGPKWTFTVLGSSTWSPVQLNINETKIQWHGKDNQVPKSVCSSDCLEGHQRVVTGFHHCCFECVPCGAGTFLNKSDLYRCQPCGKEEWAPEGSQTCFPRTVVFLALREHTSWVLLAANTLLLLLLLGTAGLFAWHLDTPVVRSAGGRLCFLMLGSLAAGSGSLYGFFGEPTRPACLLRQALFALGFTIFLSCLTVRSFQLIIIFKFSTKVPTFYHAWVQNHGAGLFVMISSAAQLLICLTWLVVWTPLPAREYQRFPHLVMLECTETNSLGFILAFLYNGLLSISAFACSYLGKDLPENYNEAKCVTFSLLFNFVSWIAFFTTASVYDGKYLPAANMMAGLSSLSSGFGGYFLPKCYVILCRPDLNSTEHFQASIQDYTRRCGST
T1 sequence (Q923K1 21-858 partner): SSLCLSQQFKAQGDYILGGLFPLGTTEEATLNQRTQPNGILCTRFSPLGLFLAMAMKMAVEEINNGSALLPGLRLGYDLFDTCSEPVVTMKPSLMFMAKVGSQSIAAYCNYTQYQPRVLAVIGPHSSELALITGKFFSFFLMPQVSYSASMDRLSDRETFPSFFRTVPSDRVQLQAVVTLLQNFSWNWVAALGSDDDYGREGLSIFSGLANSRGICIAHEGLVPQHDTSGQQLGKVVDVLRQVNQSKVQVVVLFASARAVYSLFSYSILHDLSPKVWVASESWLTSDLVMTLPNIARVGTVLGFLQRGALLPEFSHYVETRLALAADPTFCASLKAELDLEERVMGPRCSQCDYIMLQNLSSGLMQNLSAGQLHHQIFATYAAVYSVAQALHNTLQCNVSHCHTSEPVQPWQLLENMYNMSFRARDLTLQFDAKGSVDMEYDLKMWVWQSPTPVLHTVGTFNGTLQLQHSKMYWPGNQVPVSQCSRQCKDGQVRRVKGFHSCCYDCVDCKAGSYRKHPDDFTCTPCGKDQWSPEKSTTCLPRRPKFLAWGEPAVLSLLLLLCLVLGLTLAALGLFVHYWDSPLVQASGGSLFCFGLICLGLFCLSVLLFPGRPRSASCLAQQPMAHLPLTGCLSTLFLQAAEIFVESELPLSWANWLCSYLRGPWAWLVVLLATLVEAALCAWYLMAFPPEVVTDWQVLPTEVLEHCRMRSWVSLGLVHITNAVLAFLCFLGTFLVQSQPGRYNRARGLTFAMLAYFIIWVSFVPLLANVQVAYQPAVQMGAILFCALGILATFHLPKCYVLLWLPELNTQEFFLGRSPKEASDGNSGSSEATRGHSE
Test: Calcium assay, hTAS1R1 mutant co-expressed with rTAS1R3
Type: cell-based, rat
Conditions: for response to the agonist alone, vs WT: H71S
Excerpt: Chimeric Gα proteins, such as Gα16Gust44, Gα16Gi3 or Gα15i2, are widely used in the functional expression of TAS1R receptors ([Backes et al., 2015]; [Suess et al., 2015]; [Toda et al., 2021], [Toda et al., 2013], [Toda et al., 2018]; [Zhang et al., 2008]). Chimeric Gα15i2 (([Toda et al., 2013]), Supplementary data) was generated by replacing the last five residues of the C-terminal tail of rat Gα15i2 (EINLL) (UniProt number G3V6N8; https://www.uniprot.org/uniprot/) with the counterpart sequence from human GNAI2 (DCGLF) (UniProt number P04899-1) and cloning into the pcDNA3.1/Hygro vector (Invitrogen, Thermo Fisher Scientific, Illkirch, France) between the HindIII and NotI restriction sites, resulting in the plasmid pcDNA3.1-Gα15i2. Chimeric Gα16Gust44 construct have already been reported ([Raliou et al., 2011]). Briefly, Gα16Gust44 was generated by replacing the C-terminal of Gα16 with the C-terminal 44 residues of gustducin. As previously described, hTAS1R1 was amplified from human fungiform papillae cDNA and cloned and inserted into pcDNA3 (Invitrogen), generating pcDNA3-TAS1R1-WT (wild-type) ([Raliou et al., 2011]). […] The cDNA coding region of rTAS1R3 was synthesized with optimized-codon usage for human expression (Genewiz) and was cloned and inserted into the mammalian pcDNA4/myc-HisA (Invitrogen) expression vector between the EcoRI and NotI restriction sites, resulting in the plasmid pcDNA4-rTAS1R3. […] The sequence integrity of all the plasmid constructs was verified via automated DNA sequencing (Genewiz).
The hTAS1R1 mutants were co-expressed with the rTAS1R3 subunit in HEK293 cells. […] As a control, the functionality of the mutated receptors was checked after stimulation with S807 (Fig. S8), which interacts with TAS1R1-TMD ([Zhang et al., 2008]).

## N[C@@H](CCC(=O)O)C(=O)O [L-Glu, L-glutamic acid, reference compound]
  response to the agonist alone, vs WT: completely suppressed; also recorded: completely abolished

## N[C@@H](CCC(=O)N[C@@H](CS)C(=O)NCC(=O)O)C(=O)O [GSH, γ-L-glutamyl-L-cysteinyl-glycine]
  EC50: > 30 mM
  response to the agonist alone, vs WT: fully abolished; also recorded: completely abolished

## CCCC(CCC)NC(=O)c1ccc2c(c1)OCO2 [S807, N-(heptan-4-yl)benzo[d][1,3]dioxole-5-carboxamide, reference compound]
  response to the agonist alone, vs WT: unaffected
